This is an account of results in paper PMC3925085, “Subditine, a New Monoterpenoid Indole Alkaloid from Bark of Nauclea subdita (Korth.) Steud. Induces Apoptosis in Human Prostate Cancer Cells” (PLoS ONE, 2014).

For data set [1], the system named is intracellular ROS in LNCaP cells. Description: ROS assay (DHE dye, Cellomics HCS), LNCaP. To be noted: LNCaP, 12.5, 25, 50 µM, 24 h. It is filed as cell-based, human. As for the experimental part:
(§1) The production of intracellular ROS was detected as described previously. The DHE dye reagent is converted to fluorescent ethidium and intercalates into DNA in response intracellular ROS. Briefly, 10 mM DHE stock solution (in methanol) was diluted 500-fold in HBSS without serum or other additives to yield a 20 µM working solution. After exposure to subditine (1), the cells in the 96-well black plate was washed twice with HBSS and then incubated in 100 µL working solution of DHE at 37°C for 30 minutes. Fluorescence of DCF in each cell was captured, extracted and analyzed with ArrayScan II Data Acquisition and Data Viewer version 3.0 (Cellomics).

Data set [2] concerns PC-3 human prostate cancer cells. Description: MTT cell proliferation assay, PC-3. Type of data set: cell-based. As for the experimental part: Human prostate normal cell line (RWPE-1) and human prostate cancer cell lines; LNCaP and PC-3, were purchased from the American Type Culture Collection (ATCC, Manassas, Virginia, USA). LNCaP and PC-3 cells were grown in Roswell Park Memorial Institute medium (RPMI) supplemented with 10% heat-inactivated fetal bovine serum (FBS, Sigma-Aldrich, St. Louis, MO), 1% penicillin and streptomycin. RWPE-1 cells were maintained in Keratinocyte Serum Free Medium (K-SFM, ATCC) supplemented with bovine pituitary extract (BPE) and human recombinant epidermal growth factor (EGF). Mediums were supplemented with 10% heat-inactivated fetal calf serum (Sigma.), 100 U/ml penicillin and […] streptomycin (Flowlab, Sydney, Australia). All cells were maintained in a humidified atmosphere of 5% CO2 in air at 37°C incubator.
The anti-proliferative activity was evaluated by performing MTT assays as previously described with minor modifications. Briefly, cells were seeded 24 hours prior to treatment in a 96-well plate at 5×10^4 cells/well in order to obtain 70% to 80% confluent cultures. The compounds were dissolved in DMSO (Sigma Chemical Co., St. Louis, Missouri, USA) followed by a 2×serial dilution for 10 points ranged from 0.825 µM to 100 µM. The 96-well plate was incubated for 24 hours at 37°C in a humidified atmosphere with 5% CO2. At the end of incubation, 50 µl of MTT solution (2 mg/ml; Sigma) was added to each well. The plate was then incubated for 4 hours. All medium was removed and the purple formazan crystal formed at the bottom of the wells was dissolved with 200 µl DMSO for 20 minutes. The absorbance at 570 nm was read on a spectrophotometric plate reader (Hidex). The proportion of surviving cells was calculated as: […]
Dose-response curves were constructed to obtain the IC50 values. Experimental data were derived from 3 independent experiments. The selectivity index was obtained by mean IC50 RWPE-1/mean IC50 of LNCaP or PC-3.
A general note: Formazan colour is commonly taken as a measure of viable cells.

In another data set the test system is PC-3 cells. Description: Hoechst 33342 / phalloidin staining, PC-3. It is filed as cell-based, human. To be noted: PC-3, 12.5 µM and 25 µM, 24 hours, P<0.05. As for the experimental part:
(§2) Cytoskeletal and nuclear morphological changes of LNCaP and PC-3 cells were examined by phalloidin (detects F-actin) and Hoechst 33342 staining. […] At concentration 12.5 µM and 25 µM, nuclear condensation and fragmentation were detected at 24 hours after subditine (1) treatment (Figure 4).
(§3) Figure 3 Subditine (1) induced cytoskeletal rearrangement at the peripheral. LNCaP and PC-3 cells were treated with subditine (1) at various concentrations for 24 hours. Cells were fixed and stained with Hoechst (blue) and phalloidin (red) dye which stained nucleus and polymerized actin (F-actin), respectively. Bar chart showing average fluorescent intensity of phalloidin (mean ± S.D.; *p<0.05).
(§4) Figure 4 Subditine (1) treatment leads to nuclear DNA fragmentation. LNCaP and PC-3 cells were treated with subditine (1) (12.5 µM and 25 µM) for 24 h. Cells were then fixed and stained with Hoescht 33342 (blue). Red circles indicate DNA shrinkage or fragmentation. Images were captured using Cellomic arrayscan system.

Data set [3] concerns p53 expression in LNCaP cells. The experiment in a line: Western blotting, p53 in LNCaP. It is filed as cell-based, human. To be noted: LNCaP (p53-wild-type), 24 h. As for the experimental part:
(§5) To determine protein expression, 1×10^6 cells/mL were seeded and treated with subditine (1) or paclitaxel for 24 h. Whole cell extracts were prepared as previously described. Briefly, cells were collected, lysed and resolved on 10% SDS-polyacrylamide gels. After electrophoresis, the proteins were transferred to PVDF membranes (Millipore), blocked with 5% nonfat dry milk in PBS-T (0.05% Tween 20) for 1 hour at room temperature. Membranes were probed with primary rabbit anti-Bcl-2, Bcl-xL or p53 antibodies followed by horseradish peroxidase (HRP)-conjugated secondary anti-rabbit antibody (Cell Signaling Technology Inc., CA, USA). Membranes were stripped and reprobed with mouse anti-β-actin antibody as loading control (Santa Cruz Biotechnology Inc.). Protein-antibody complexes were detected with Amersham ECL prime Western blotting detection reagent (GE Healthcare, USA).
In general terms: In western blotting, separated proteins are transferred to a membrane and probed.

Data set [4] relates to LNCaP cells. The experiment in a line: Cellomics multiparameter cytotoxicity assay, LNCaP. It is filed as cell-based, human. The method, then:
Cytotoxicity 3 kit (Thermo Scientific) was used as described previously. Briefly, 24 hours after subditine (1) treatment, MMP dye and the cell permeability dye were added to live cells and incubated for 30 minutes at 37°C. Cells were fixed, permeabilized, blocked with 1x blocking buffer before probing with primary cytochrome c and secondary DyLight 649 conjugated goat anti-mouse IgG antibodies for 1 hour each. Hoechst 33342 was added into the staining solution. Plates were then analyzed using the ArrayScan high content screening (HCS) system (Cellomics, PA, USA). Data were captured, extracted and analyzed with ArrayScan II Data Acquisition and Data Viewer version 3.0.

In data set [5] the test system is LNCaP cells. Description: Hoechst 33342 / phalloidin staining, LNCaP. Type of data set: cell-based, human. To be noted: 24 hours. As for the experimental part: as §2, §3, §4
The next data set relates to caspase-8 in PC-3 cells. Description: Caspase-Glo 8 bioluminescent assay, PC-3. It is filed as cell-based, human. To be noted: PC-3, 12.5 µM, throughout 30 hours. The method, then: A time-dependent study of caspase-3/7, -8, and -9 activities was performed in triplicates using assay kits Caspase-Glo 3/7, 8, and 9 (Promega Corp.,Madison,WI, USA) on white 96-well microplate as described previously. A total of 10,000 cells per well was seeded and treated with […] of subditine (1) for 6, 12, 18, 24, and 30 hours. Then, 100 µL of the caspase-Glo reagent was added, incubated at room temperature for 30 minutes and measured using Tecan Infinite 200 Pro (Tecan, Mannedorf, Swizerland) microplate reader.

For data set [6], the system named is Bcl-xL expression in LNCaP cells. The experiment in a line: Western blotting, Bcl-xL in LNCaP. Type of data set: cell-based, human. To be noted: 24 h. The method, then: as §5
The subject of data set [7] is intracellular ROS in PC-3 cells. Description: ROS assay (DHE dye, Cellomics HCS), PC-3. It is filed as cell-based, human. To be noted: PC-3, 12.5, 25, 50 µM, 24 h. As for the experimental part: as §1

Broadly, the IC50 is the concentration at which inhibition is half-maximal. Consider `Cc1ncc2c(=O)n3c(cc2c1C=O)-c1[nH]c2ccccc2c1CC3` [Subditine, subditine], for which the “ROS production (DCF/DHE fluorescence level)” value in data set [1] and in [7] was “significantly increased in a dose-dependent manner” throughout. In data set [2] (Homo sapiens, MTT, 24 hours, PC-3, mean ± S.D.), this molecule came in with an IC50 of 14 ± 0.32 µM. Further, the “folds more potent against PC-3 than normal prostate cells RWPE-1” value in [2] (PC-3 vs RWPE-1) turned out to be 2.2 folds. In addition, the “selectivity index (SI) PC-3” value in data set [2] (mean IC50 RWPE-1/mean IC50 of PC-3) is 2.18. The “nuclear intensity (apoptotic chromatin changes)” value was “significantly increased” with PC-3 cells; “significantly increased” in the data set with LNCaP cells [5] (12.5 µM and 25 µM, P<0.05). In addition, the p53 expression entry in [3] is given as “up-regulate”. In the data set on LNCaP cells [4] (24 h, compared to control), the “cytochrome c release (cytosolic staining)” value is given as “increased fluorescent-staining in the cytosol”. In addition, in the data set with LNCaP cells [4] (24 h, compared to control), the membrane permeability result is recorded as “higher membrane permeability”. In addition, the “mitochondrial membrane potential (MMP) fluorescence intensity” value in the data set on LNCaP cells [4] (24 hours) is “dose-dependent reduction”. In addition, in the data set with LNCaP cells [5] (various concentrations), the “phalloidin (F-actin) intensity” value is listed as “Dose-dependent increased”. Also, in the data set on caspase-8 in PC-3 cells, the “caspase 8 activity” value was “No significant fold-change”. For the same molecule, the Bcl-xL expression entry in data set [6] is recorded as “down-regulation”.
